Data: patent publication US20230285598A1, “SULFOXONIUM YLIDE DERIVATIVES AS PROBES FOR CYSTEINE PROTEASE” (Takeda Pharmaceutical Company Limited, priority 2018, published 2023)

Tests used:
cathepsin X [1] = target: T1, cathepsin X (Mus musculus, UniProt Q9WUU7); assay: Probe labeling of mouse splenic lysates (wildtype or cathepsin X-deficient), in-gel fluorescence; assay type: biochemical; settings: probe 1 µM for 20 minutes
Procedure: (§1) issues were harvested from healthy mice and snap frozen. At the time of analysis, lysis buffer was added at 10x volume:weight, and tissues were sonicated on ice. Cleared lysates were labeled with the indicated probe and analyzed as above.
In Example 4, the ability of sCy5-Val-SY to label cathepsin X in mouse splenic lysates (from wildtype mice or cathepsin X-deficient mice) was tested (probe addition at 1 µM for 20 minutes).

cathepsin X [2] = target: T1, cathepsin X; assay: In vivo probe labeling in mice (intravenous), tissues analyzed by fluorescent SDS-PAGE; settings: intravenous 50 nmol, two hours of circulation
Procedure: For in vivo labeled tissues, mice were first injected intravenously via the tail vein with sCy5-Nle-SY, BMV109, or sCy5-Nle-AOMK (50 nmol in 100 µl 10% DMSO/PBS or vehicle control). Tissues were harvested and analyzed as above except without further probe addition.
In Example 10, the probe sCy5-Nle-SY, vehicle control/no probe (NP) or BMV109 were injected into mice intravenously. After two hours of circulation, tissues were harvested, lysed, and analyzed for probe labeling by fluorescent SDS-PAGE.
In Example 12, the AOMK probe sCy5-Nle-AOMK was tested in vivo and its labeling in tissues was analyzed. The probe was injected into mice intravenously. After two hours of circulation, tissues were harvested, lysed, and analyzed for probe labeling by fluorescent SDS-PAGE.

cathepsin X [3] = target: T1, cathepsin X; assay: Inhibition in live RAW264.7 cells, residual activity by sCy5-Val-SY labeling; assay type: cell-based; design: protein lysates prepared from RAW264.7 cells; host or cells: RAW264.7; settings: 100 µM overnight pre-treatment, compared to controls
Procedure: To test the ability of sulfoxonium ylide compounds to act as cathepsin inhibitors, an unlabeled, boc-protected version of Val-SY, i.e. tert-butyl (S)-(1-(dimethyl(oxo)-λ ^6-sulfanylidene)-4-methyl-2-oxopentan-3-yl)carbamate (SJM-724-24) was used. Live RAW264.7 cells were pre-treated with Boc-Val-SY (0, 10 or 100 µM) overnight. Residual cathepsin X activity was measured by incubating the live cells with sCy5-Val-SY for two hours. Cells were lysed and labeled proteins were detected by in-gel fluorescence.

cathepsin S = target: T2, cathepsin S (Mus musculus, UniProt O70370); assay: as above; assay type: cell-based; settings: 100 µM overnight pre-treatment, compared to controls
T2 construct: Live RAW264.7 cells were pre-treated with Boc-Val-SY (0, 10 or 100 µM) overnight; host or cells: RAW264.7

cathepsin X [4] = target: cathepsin X (Homo sapiens, UniProt Q9UBR2); assay: Probe labeling of live MDA-MB-231 HM cells, in-gel fluorescence; assay type: cell-based; design: cathepsin X in a human breast cancer line known to express very low levels of cathepsin S; host or cells: MDA-MB-231 HM; settings: 0.1-5 µM, overnight incubation
Procedure: (§2) AW cells or MDA-MB-231 ^HM cells were plated in 12-well plates. Where indicated, MDV-590 or vehicle was added at 10 µM from a 10 mM DMSO stock for overnight incubation. When the cell density reached 80%, the indicated probes were added at the indicated concentrations from a 1000x DMSO stock and allowed to incubate for the indicated time. Media was then removed and replaced with PBS. The cells were then scraped and transferred to tubes, and lysis and SDS-PAGE analysis were carried out as above, except skipping the probe addition step.
In Example 9, the specificity of the sulfoxonium ylide probes for cathepsin X in a human breast cancer line known to express very low levels of cathepsin S, MDA-MB-231 ^HM (Chang et al., 2007) was tested, and the results compared to BMV109. The MDA-MB-231 ^HM cells also allowed to test whether the sulfoxonium ylide probes could bind to human cathepsin X (in addition to mouse cathepsin X shown previously).
The sulfoxonium ylide probes (and BMV109) were each added with increasing probe concentrations of 0.1 µM, 0.5 µM, 1 µM and 5 µM).

cathepsin X [5] = target: T1, cathepsin X; assay: Probe labeling of kidney lysates, in-gel fluorescence; assay type: biochemical; settings: 0.1-5 µM for 20 minutes
Procedure: as §1
In Example 7, sulfoxonium ylide probes as prepared in accordance with Example 1 were tested in kidney lysates and the results compared to BMV109. The sulfoxonium ylide probes (and BMV109) were each added with increasing probe concentrations of 0.1 µM, 0.5 µM, 1 µM and 5 µM for 20 minutes.

cathepsin X [6] = target: T1, cathepsin X; assay: Probe labeling of living RAW264.7 cells, in-gel fluorescence; assay type: cell-based; design: protein lysates prepared from RAW264.7 cells; host or cells: RAW264.7; settings: Example 8; 0.1-5 µM for 2 hours
Procedure: as §2, with “step. […]” for “step.”
In Example 8, sulfoxonium ylide probes as prepared in accordance with Example 1 were applied to live RAW264.7 cells for two hours, in order to examine the potency and permeability of the sulfoxonium ylide probe series in living cells, and the results compared to BMV109.
The sulfoxonium ylide probes (and BMV109) were each added with increasing probe concentrations of 0.1 µM, 0.5 µM, 1 µM and 5 µM for 2 hours. […]

cathepsin X [7] = target: T1, cathepsin X; assay: Probe labeling of RAW264.7 cell lysates, SDS-PAGE in-gel fluorescence; assay type: biochemical; design: protein lysates prepared from RAW264.7 cells; host or cells: RAW264.7
Procedure: ells were harvested by scraping, washed once with PBS, and resuspended in lysis buffer containing 50 mM citrate [pH 5.5], 0.5% CHAPS, 0.1% Triton X-100, and 4 mM DTT. Cells were incubated on ice for at least 10 minutes with intermittent vortexing followed by centrifugation ([…] at 4° C. or 5 minutes). Cleared supernatants were then transferred to a fresh tube and protein concentration was determined by BCA. Total protein (50 µg) was aliquoted into tubes in a final volume of 20 µl lysis buffer. Where indicated, JPM-OEt or MDV-590 were added from a 100x DMSO stock and incubated at 37° C. or 20 minutes prior to probe addition. The indicated concentration of probe was added from a 100x DMSO stock. Labeling was carried out at 37° C. or 20 minutes (unless otherwise indicated), and the reactions were quenched by the addition of 5x sample buffer (200 mM Tris-Cl [pH 6.8], 8% SDS, 0.04% bromophenol blue, 5% b-mercaptoethanol, and 40% glycerol). Samples were then boiled for five minutes and proteins were resolved on a 15% SDS-PAGE gel. The gels were scanned on a Typhoon 5 flatbed laser scanner at 633/670 nm excitation/emission to detect sCy5 fluorescence.
robe-labeled lysate from above (in sample buffer) was divided into input or pulldown (~50 µg total protein each). The input sample was stored at -20° C. The pulldown sample was diluted in 500 µl IP buffer (PBS [pH 7.4],[…], 1 mM EDTA). Goat anti-cathepsin X antibody (10 µl) was added along with 40 µl slurry of pre-washed Protein A/G agarose beads. Samples were rotated overnight at 4° C. Beads were then washed four times with IP buffer followed by a final wash in 0.9% NaCl. Beads were then resuspended in 2x sample buffer and boiled. The pulldown supernatants, alongside the input samples, were analysed by fluorescent SDS-PAGE as above.
In Example 3, the sulfoxonium ylide probe sCy5-Val-SY was incubated with protein lysates prepared from RAW264.7 cells, an immortalized mouse macrophage line that contains high levels of active cysteine cathepsins (Verdoes et al., 2013). Cells were lysed in citrate buffer (pH 5.5) to provide optimal conditions for cathepsin activation, and the probe was added • at 1 µM for 20 minutes • at various concentrations (0 µM, 0.01 µM, 0.05 µM, 0.1 µM, 0.5 µM or 1 µM) for 20 minutes; or • at 1 µM for varying times (0, 1, 2, 5, 10, 20, and 30 minutes).
Then the lysates were resolved by SDS-PAGE and the gel scanned for sCy5 fluorescence using a flatbed laser scanner.
The labeling profile of sCy5-Val-SY was compared to that of BMV109, the pan-cathepsin probe, by repeating the above experiment using BMV109 as the probe added at 1 µM for 20 minutes.
In Example 6, a small library of sulfoxonium ylide probes with varying amino acids in the P1 position as prepared in accordance with Example 1 was tested in RAW264.7 lysates, and compared to BMV109. Each probe was added with increasing probe concentrations of 0.01 µM, 0.05 µM, 0.1 µM, 0.5 µM, 1 µM and 5 µM for 20 minutes).

[8] = Example 6, 0.01-5 µM for 20 minutes

T1 sequence (Q9WUU7 64-306): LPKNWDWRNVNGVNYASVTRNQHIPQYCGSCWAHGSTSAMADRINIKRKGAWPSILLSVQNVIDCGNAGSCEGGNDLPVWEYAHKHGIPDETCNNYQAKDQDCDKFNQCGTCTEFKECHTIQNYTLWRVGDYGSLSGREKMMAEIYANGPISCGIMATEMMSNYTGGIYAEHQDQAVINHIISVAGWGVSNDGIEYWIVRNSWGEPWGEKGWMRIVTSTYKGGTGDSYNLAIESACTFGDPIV
Sequence of cathepsin X (Homo sapiens, UniProt Q9UBR2) (Q9UBR2 62-303): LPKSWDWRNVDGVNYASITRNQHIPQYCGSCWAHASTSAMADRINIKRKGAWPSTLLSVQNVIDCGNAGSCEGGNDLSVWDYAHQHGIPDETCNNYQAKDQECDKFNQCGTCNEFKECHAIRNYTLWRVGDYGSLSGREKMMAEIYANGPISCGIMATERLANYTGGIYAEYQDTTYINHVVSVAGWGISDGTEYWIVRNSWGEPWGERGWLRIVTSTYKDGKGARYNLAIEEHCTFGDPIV

**Q.** Which results are given for `CC[N+]1=C(/C=C/C=C/C=C2\N(CCCCCC(=O)NCCCC[C@H](NC(=O)[C@H](Cc3ccccc3)NC(=O)OCc3ccccc3)C(=O)COc3c(F)c(F)c(C(=O)NCCNC(=O)C4CCN(S(=O)(=O)c5ccccc5-c5c6ccc(N7CCc8cc(S(=O)(=O)[O-])ccc87)cc6[o+]c6cc(N7CCc8cc(S(=O)(=O)O)ccc87)ccc56)CC4)c(F)c3F)c3ccc(S(=O)(=O)O)cc3C2(C)C)C(C)(C)c2cc(S(=O)(=O)[O-])ccc21` [BMV109, reference compound]?
**A.** labeling in splenic lysates from wildtype mice (cathepsin X [1]): strongly labeled cathepsin B and to a lesser extent, cathepsin S and L; labeling of cathepsin S, B and L in tissues after in vivo administration (cathepsin X [2]): strongly labels cathepsin B and L

**Q.** How did the “reduction in cathepsin X” value (cathepsin X [3]) turn out when `CC(C)[C@H](NC(=O)OC(C)(C)C)C(=O)C=S(C)(C)=O` [Boc-Val-SY, tert-butyl (S)-(1-(dimethyl(oxo)-λ^6-sulfanylidene)-4-methyl-2-oxopentan-3-yl)carbamate] was run?
**A.** Its value is 71%.

**Q.** What about the “reduction in cathepsin S” value (cathepsin S) of the same compound?
**A.** Its value is 51%.

**Q.** Which results are given for `CC[N+]1=C(/C=C/C=C/C=C2/N(CCCCCC(=O)NCCCC[C@H](NC(=O)OCc3ccccc3)C(=O)C=S(C)(C)=O)c3ccc(S(=O)(=O)O)cc3C2(C)C)C(C)(C)c2cc(S(=O)(=O)[O-])ccc21` [Cbz-Lys(sCy5)-SY]?
**A.** cross-reactivity with cathepsin B and L in live MDA-MB-231 HM cells (cathepsin X [4]): the most cross-reactivity with cathepsin B and L; potency and specificity of labeling in kidney lysates (cathepsin X [5]): broader reactivity; cathepsins labeled in live RAW264.7 cells (cathepsin X [6]): preference for cathepsin S; specificity of labeling in RAW264.7 lysates (cathepsin X [7]; [8]): loss of specificity, favoring cathepsin S over X and B

**Q.** Which “potency and specificity of labeling in kidney lysates” value (shortened to “potency and specificity of labeling”) (cathepsin X [5]) does the source give for `CC[N+]1=C(/C=C/C=C/C=C2/N(CCCCCC(=O)N[C@@H](CC(C)C)C(=O)C=S(C)(C)=O)c3ccc(S(=O)(=O)O)cc3C2(C)C)C(C)(C)c2cc(S(=O)(=O)[O-])ccc21` [sCy5-Leu-SY] here?
**A.** The value was “the most potency and specificity for cathepsin X”.

**Q.** What about the “cathepsins labeled in live RAW264.7 cells” value (“cathepsins labeled” for short) (cathepsin X [6]) of the same compound?
**A.** The value was “labeled cathepsin X and S to similar extents and with similar potency”.

**Q.** How did the “labeling of cathepsin S, B and L in tissues after in vivo administration” value (cathepsin X [2]) turn out when `CCCC[C@H](NC(=O)CCCCN1/C(=C/C=C/C=C/C2=[N+](CC)c3ccc(S(=O)(=O)[O-])cc3C2(C)C)C(C)(C)c2cc(S(=O)(=O)O)ccc21)C(=O)COC(=O)c1c(C)cccc1C` [sCy5-Nle-AOMK] was run?
**A.** The value was “Only weak labeling of cathepsin B and S was observed in the colon, but not in other tissues examined”.

**Q.** With `CC[N+]1=C(/C=C/C=C/C=C2/N(CCCCCC(=O)N[C@@H](Cc3ccccc3)C(=O)C=S(C)(C)=O)c3ccc(S(=O)(=O)O)cc3C2(C)C)C(C)(C)c2cc(S(=O)(=O)[O-])ccc21` [sCy5-Phe-SY] as the compound, how does the “potency and specificity of labeling” value (cathepsin X [5]) read?
**A.** The value was “broader reactivity”.

**Q.** And the “cathepsins labeled” value (cathepsin X [6])?
**A.** The value was “labeled cathepsin X and S to similar extents and with similar potency”.

**Q.** For `CC[N+]1=C(/C=C/C=C/C=C2/N(CCCCCC(=O)N[C@@H](Cc3ccccc3)C(=O)N[C@H](C(=O)C=S(C)(C)=O)C(C)C)c3ccc(S(=O)(=O)O)cc3C2(C)C)C(C)(C)c2cc(S(=O)(=O)[O-])ccc21` [sCy5-Phe-Val-SY], which “cross-reactivity with cathepsin B and L in live MDA-MB-231 HM cells” value (cathepsin X [4]) is on record?
**A.** Its value is “the most cross-reactivity with cathepsin B and L”.

**Q.** What about the “potency and specificity of labeling” value (cathepsin X [5]) of the same compound?
**A.** The value was “broader reactivity”.

**Q.** And the “cathepsins labeled” value (cathepsin X [6])?
**A.** The value was “labeled cathepsin B and L in addition to cathepsin X and S”.

**Q.** What about the “potency of labeling in RAW264.7 lysates” value (cathepsin X [7]; [8]) of the same compound?
**A.** Its value is “improved potencies for cathepsin X and S compared to BMV109”.

**Q.** And the “specificity of labeling in RAW264.7 lysates” value (cathepsin X [7]; [8])?
**A.** The value was “loss of specificity”.

**Q.** Which “cathepsins labeled” value (cathepsin X [6]) does the source give for `CC[N+]1=C(/C=C/C=C/C=C2/N(CCCCCC(=O)N[C@@H](Cc3c[nH]c4ccccc34)C(=O)C=S(C)(C)=O)c3ccc(S(=O)(=O)O)cc3C2(C)C)C(C)(C)c2cc(S(=O)(=O)[O-])ccc21` [sCy5-Trp-SY] here?
**A.** The value was “labeled cathepsin X and S to similar extents and with similar potency”.

**Q.** JPM-OEt [reference compound] was tested. Which “competition for sCy5-Val-SY labeling by inhibitor pretreatment” value (cathepsin X [7]; RAW264.7 lysates pretreated with 10 µM inhibitor, then sCy5-Val-SY 1 µM 20 minutes) did it give?
**A.** The value was “labeling was prevented”.
